In patent US12083124B2 (Incyte Corporation, priority 2019, dated 2024) one finds IC50 data, which are given here for 20 compounds.

The structures appear in SMILES notation. Like-named read-outs stand apart in the source and are kept apart here.

The target in test [1] is wild-type un-phosphorylated FGFR1 (Homo sapiens, UniProt P11362). The test can be described thus: FGFR Enzymatic Assay (FRET peptide phosphorylation), FGFR1. To be noted: pre-incubated for 4 hours.
Test [2] deals with wild-type un-phosphorylated FGFR3 (Homo sapiens, UniProt P22607). The test can be described thus: FGFR Enzymatic Assay (FRET peptide phosphorylation), FGFR3.
The target of test [3] is wild-type un-phosphorylated FGFR2 (Homo sapiens, UniProt P21802). The test can be described thus: FGFR Enzymatic Assay (FRET peptide phosphorylation), FGFR2.
For test [4], the target named is wild-type un-phosphorylated FGFR4 (Homo sapiens, UniProt P22455). The test can be described thus: FGFR Enzymatic Assay (FRET peptide phosphorylation), FGFR4.
[5] abbreviates: FGFR1, wild-type un-phosphorylated FGFR1.
Setting [6] is: read-out: FGFR2, wild-type un-phosphorylated FGFR2, pre-incubated for 4 hours.
The mark [7] stands for this setting: read-out: FGFR1, wild-type un-phosphorylated FGFR1.
Setting [8] is: read-out: FGFR4, wild-type un-phosphorylated FGFR4, pre-incubated for 4 hours.

Chain of wild-type un-phosphorylated FGFR3 (P22607 23-806): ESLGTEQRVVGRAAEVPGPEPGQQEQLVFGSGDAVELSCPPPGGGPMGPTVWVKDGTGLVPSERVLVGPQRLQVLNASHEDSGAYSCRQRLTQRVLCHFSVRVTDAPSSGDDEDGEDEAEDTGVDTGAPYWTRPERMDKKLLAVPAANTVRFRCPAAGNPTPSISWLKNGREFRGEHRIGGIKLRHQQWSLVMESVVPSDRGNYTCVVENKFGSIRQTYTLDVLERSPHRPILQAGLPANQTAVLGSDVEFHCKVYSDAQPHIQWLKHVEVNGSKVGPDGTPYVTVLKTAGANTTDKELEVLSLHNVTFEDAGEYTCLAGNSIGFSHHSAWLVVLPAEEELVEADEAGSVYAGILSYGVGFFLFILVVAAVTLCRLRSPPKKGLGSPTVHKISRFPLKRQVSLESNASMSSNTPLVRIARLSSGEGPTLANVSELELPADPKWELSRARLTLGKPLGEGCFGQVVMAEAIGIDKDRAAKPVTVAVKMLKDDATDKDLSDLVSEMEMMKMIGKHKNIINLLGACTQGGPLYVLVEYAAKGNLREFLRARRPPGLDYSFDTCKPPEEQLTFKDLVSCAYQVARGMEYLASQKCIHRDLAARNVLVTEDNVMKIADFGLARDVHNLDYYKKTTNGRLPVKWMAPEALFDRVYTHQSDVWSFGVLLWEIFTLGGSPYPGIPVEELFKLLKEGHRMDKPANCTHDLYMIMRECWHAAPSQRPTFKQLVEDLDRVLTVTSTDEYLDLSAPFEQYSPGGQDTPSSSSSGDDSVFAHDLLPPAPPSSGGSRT
Chain of wild-type un-phosphorylated FGFR2 (P21802 22-821): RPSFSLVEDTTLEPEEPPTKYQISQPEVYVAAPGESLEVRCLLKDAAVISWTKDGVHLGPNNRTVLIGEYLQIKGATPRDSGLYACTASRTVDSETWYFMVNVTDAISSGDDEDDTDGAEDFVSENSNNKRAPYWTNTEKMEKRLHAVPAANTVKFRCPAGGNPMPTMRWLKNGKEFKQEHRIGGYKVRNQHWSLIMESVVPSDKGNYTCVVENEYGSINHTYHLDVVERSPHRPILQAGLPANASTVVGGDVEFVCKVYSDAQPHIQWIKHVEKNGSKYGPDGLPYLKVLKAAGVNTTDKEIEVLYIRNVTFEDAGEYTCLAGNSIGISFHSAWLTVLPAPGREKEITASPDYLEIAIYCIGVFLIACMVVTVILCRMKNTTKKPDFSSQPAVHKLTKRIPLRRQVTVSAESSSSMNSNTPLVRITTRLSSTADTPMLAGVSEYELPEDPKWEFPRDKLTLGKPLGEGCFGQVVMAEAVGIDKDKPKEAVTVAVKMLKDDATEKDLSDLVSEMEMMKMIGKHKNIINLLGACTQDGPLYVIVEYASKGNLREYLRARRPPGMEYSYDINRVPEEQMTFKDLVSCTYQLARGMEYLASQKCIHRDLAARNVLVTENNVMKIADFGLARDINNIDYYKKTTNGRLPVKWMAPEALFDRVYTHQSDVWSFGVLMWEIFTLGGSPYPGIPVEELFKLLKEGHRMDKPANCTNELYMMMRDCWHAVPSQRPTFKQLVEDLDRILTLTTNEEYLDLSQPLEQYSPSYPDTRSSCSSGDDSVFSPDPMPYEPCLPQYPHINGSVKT
Chain of wild-type un-phosphorylated FGFR1 (P11362 22-822): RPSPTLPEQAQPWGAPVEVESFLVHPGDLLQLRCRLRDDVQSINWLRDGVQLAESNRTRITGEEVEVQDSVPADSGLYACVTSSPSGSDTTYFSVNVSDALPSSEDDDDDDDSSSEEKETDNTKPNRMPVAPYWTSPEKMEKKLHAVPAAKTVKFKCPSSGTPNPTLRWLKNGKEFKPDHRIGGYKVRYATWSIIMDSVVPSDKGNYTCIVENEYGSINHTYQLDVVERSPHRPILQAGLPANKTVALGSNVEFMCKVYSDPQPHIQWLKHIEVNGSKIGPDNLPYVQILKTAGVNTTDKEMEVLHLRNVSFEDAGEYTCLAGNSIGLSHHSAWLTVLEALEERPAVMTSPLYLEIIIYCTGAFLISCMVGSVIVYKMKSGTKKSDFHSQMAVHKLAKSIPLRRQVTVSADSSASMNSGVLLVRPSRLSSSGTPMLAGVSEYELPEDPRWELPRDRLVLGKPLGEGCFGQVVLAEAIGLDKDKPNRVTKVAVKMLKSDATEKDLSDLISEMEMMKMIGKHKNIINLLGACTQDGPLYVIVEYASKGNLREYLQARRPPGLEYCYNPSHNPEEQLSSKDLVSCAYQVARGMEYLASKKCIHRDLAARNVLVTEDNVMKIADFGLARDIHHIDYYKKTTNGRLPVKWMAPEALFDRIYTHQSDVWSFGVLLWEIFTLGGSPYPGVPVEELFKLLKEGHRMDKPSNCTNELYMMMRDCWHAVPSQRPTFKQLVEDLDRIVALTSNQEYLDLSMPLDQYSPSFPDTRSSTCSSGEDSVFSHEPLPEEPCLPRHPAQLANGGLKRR
Chain of wild-type un-phosphorylated FGFR4 (P22455 22-802): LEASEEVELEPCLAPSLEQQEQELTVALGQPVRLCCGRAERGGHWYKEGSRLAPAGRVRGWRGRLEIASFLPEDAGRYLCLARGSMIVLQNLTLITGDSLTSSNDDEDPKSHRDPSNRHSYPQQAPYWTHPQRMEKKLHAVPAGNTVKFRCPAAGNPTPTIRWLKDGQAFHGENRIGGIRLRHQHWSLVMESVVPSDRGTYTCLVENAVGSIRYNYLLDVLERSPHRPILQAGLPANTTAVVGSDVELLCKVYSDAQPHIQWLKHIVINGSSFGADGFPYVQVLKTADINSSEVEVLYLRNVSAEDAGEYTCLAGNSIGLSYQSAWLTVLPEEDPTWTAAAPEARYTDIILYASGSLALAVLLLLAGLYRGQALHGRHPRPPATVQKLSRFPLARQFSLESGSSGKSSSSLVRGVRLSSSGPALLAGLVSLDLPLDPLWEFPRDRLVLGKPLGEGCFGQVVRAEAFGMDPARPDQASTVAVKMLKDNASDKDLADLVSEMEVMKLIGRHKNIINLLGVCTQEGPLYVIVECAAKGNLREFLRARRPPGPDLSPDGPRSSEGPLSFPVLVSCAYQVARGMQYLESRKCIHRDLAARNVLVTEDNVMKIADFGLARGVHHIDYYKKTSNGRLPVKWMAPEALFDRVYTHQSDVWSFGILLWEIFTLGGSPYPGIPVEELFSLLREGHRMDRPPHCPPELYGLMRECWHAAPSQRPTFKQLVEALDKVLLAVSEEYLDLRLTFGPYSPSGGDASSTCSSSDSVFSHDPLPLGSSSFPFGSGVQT

Turning to `COc1cc2[nH]nc(-c3ccc(C4CC4)nc3)c2nc1-c1cccc2c1CC(O)C2` (centres unmarked) [Example 97, 4-(3-(6-Cyclopropylpyridin-3-yl)-6-methoxy-1H-pyrazolo[4,3-b]pyridin-5-yl)-2,3-dihydro-1H-inden-2-ol], the IC50 was 40 to 100 nM in test [1] (setting [5]), below 6 nM in test [2], 6 to 40 nM in test [3] (setting [6]) and above 100 nM in test [4].
As for `COc1cc2[nH]nc(-c3ccc(C4CCN(C5CCNC5=O)C4)nc3)c2nc1-c1cccc2c1CCC2` (single isomer, unassigned) [Example 105, 3-(5-(5-(2,3-Dihydro-1H-inden-4-yl)-6-methoxy-1H-pyrazolo[4,3-b]pyridin-3-yl)pyridin-2-yl)-[1,3′-bipyrrolidin]-2′-one], the IC50 in test [1] (setting [7]) was 6 to 40 nM; in test [2] it was below 6 nM; in test [3], below 6 nM; in test [4] (setting [8]), 6 to 40 nM.
For `COc1cc2[nH]nc(-c3cnn([C@H]4CCN(C(=O)CO)C4)c3)c2nc1-c1cccc2c1CCC2` [Example 129, (S)-1-(3-(4-(5-(2,3-Dihydro-1H-inden-4-yl)-6-methoxy-1H-pyrazolo[4,3-b]pyridin-3-yl)-1H-pyrazol-1-yl)pyrrolidin-1-yl)-2-hydroxyethan-1-one], the IC50 in test [1] (setting [7]) is 6 to 40 nM; in test [2] it was below 6 nM; in test [3], below 6 nM; in test [4] (setting [8]), 6 to 40 nM.
Consider `COc1cc2[nH]nc(-c3ccc(N4CCN(C(N)=O)CC4)nc3)c2nc1-c1cccc2c1CCC2` [Example 60, 4-(5-(5-(2,3-Dihydro-1H-inden-4-yl)-6-methoxy-1H-pyrazolo[4,3-b]pyridin-3-yl)pyridin-2-yl)piperazine-1-carboxamide], for which the IC50 in test [1] (setting [7]) is 6 to 40 nM; in test [2] it was below 6 nM; in test [3], below 6 nM; in test [4] (setting [8]), 6 to 40 nM.
For `COc1cc2[nH]nc(-c3cnn(C4CN(C(=O)C[C@@H](C)O)C4)c3)c2nc1-c1cccc2c1CCC2` [Example 134, (R)-1-(3-(4-(5-(2,3-Dihydro-1H-inden-4-yl)-6-methoxy-1H-pyrazolo[4,3-b]pyridin-3-yl)-1H-pyrazol-1-yl)azetidin-1-yl)-3-hydroxybutan-1-one], the IC50 in test [1] (setting [7]) was 6 to 40 nM; in test [2], below 6 nM; in test [3] it was below 6 nM; in test [4], 40 to 100 nM.
For the compound `CCN1CCN(c2ccc(-c3n[nH]c4cc(OC)c(-c5cccc(C)c5C)nc34)cn2)CC1` [Example 42, 5-(2,3-Dimethylphenyl)-3-(6-(4-ethylpiperazin-1-yl)pyridin-3-yl)-6-methoxy-1H-pyrazolo[4,3-b]pyridine], the IC50 in test [1] (setting [5]) was 40 to 100 nM; in test [2], below 6 nM; in test [3], below 6 nM; in test [4] it was above 100 nM.
With `COc1cc2[nH]nc(-c3cnn(C4CN(C(=O)[C@@H]5CCCO5)C4)c3)c2nc1-c1cccc2c1CCC2` [Example 130, (S)-(3-(4-(5-(2,3-Dihydro-1H-inden-4-yl)-6-methoxy-1H-pyrazolo[4,3-b]pyridin-3-yl)-1H-pyrazol-1-yl)azetidin-1-yl)(tetrahydrofuran-2-yl)methanone], the IC50 in test [1] (setting [7]) is 6 to 40 nM; in test [2], below 6 nM; in test [3], below 6 nM; in test [4] (setting [8]), 6 to 40 nM.
`CNc1cc2[nH]nc(-c3cnn(C)c3)c2nc1-c1cccc(C)c1C` [Example 34, 5-(2,3-Dimethylphenyl)-N-methyl-3-(1-methyl-1H-pyrazol-4-yl)-1H-pyrazolo[4,3-b]pyridin-6-amine]: the IC50 in test [1] (setting [5]) was 40 to 100 nM; in test [2], below 6 nM; in test [3], below 6 nM; in test [4], above 100 nM.
As for `COc1cc2[nH]nc(-c3cnn(C4CCN(C(=O)N(C)C)CC4)c3)c2nc1-c1cccc2c1CCC2` [Example 19, 4-(4-(5-(2,3-Dihydro-1H-inden-4-yl)-6-methoxy-1H-pyrazolo[4,3-b]pyridin-3-yl)-1H-pyrazol-1-yl)-N,N-dimethylpiperidine-1-carboxamide], the IC50 in test [1] (setting [5]) was 40 to 100 nM; in test [2] it was below 6 nM; in test [3] it was below 6 nM; in test [4], above 100 nM.
For `COc1cc2[nH]nc(-c3cnn(C4CN(C(=O)C5CC5)C4)c3)c2nc1-c1cccc2c1CCC2` [Example 25, Cyclopropyl(3-(4-(5-(2,3-dihydro-1H-inden-4-yl)-6-methoxy-1H-pyrazolo[4,3-b]pyridin-3-yl)-1H-pyrazol-1-yl)azetidin-1-yl)methanone], the IC50 in test [1] (setting [7]) was 6 to 40 nM; in test [2], below 6 nM; in test [3], below 6 nM; in test [4], 40 to 100 nM.
Take `COc1cc2[nH]nc(-c3cnn(C4CN(S(=O)(=O)CCO)C4)c3)c2nc1-c1cccc2c1CCC2` [Example 150, 2-((3-(4-(5-(2,3-Dihydro-1H-inden-4-yl)-6-methoxy-1H-pyrazolo[4,3-b]pyridin-3-yl)-1H-pyrazol-1-yl)azetidin-1-yl)sulfonyl)ethan-1-ol]: the IC50 is 40 to 100 nM in test [1] (setting [5]), below 6 nM in test [2], below 6 nM in test [3] and 40 to 100 nM in test [4].
In the case of `COc1cc2[nH]nc(-c3ccc(C4CCN(C(=O)[C@H](C)O)CC4)nc3)c2nc1-c1cccc(C)c1C` [Example 77, (S)-1-(4-(5-(5-(2,3-Dimethylphenyl)-6-methoxy-1H-pyrazolo[4,3-b]pyridin-3-yl)pyridin-2-yl)piperidin-1-yl)-2-hydroxypropan-1-one], the IC50 in test [1] (setting [5]) was above 100 nM; in test [2] it was below 6 nM; in test [3], below 6 nM; in test [4], above 100 nM.
On to `COc1cc2[nH]nc(-c3cnn(C4CN(C(=O)[C@H](C)N(C)C)C4)c3)c2nc1-c1cccc2c1CCC2` [Example 118, (S)-1-(3-(4-(5-(2,3-Dihydro-1H-inden-4-yl)-6-methoxy-1H-pyrazolo[4,3-b]pyridin-3-yl)-1H-pyrazol-1-yl)azetidin-1-yl)-2-(dimethylamino)propan-1-one], for which the IC50 in test [1] (setting [7]) was 6 to 40 nM; in test [2], below 6 nM; in test [3], below 6 nM; in test [4], 40 to 100 nM.
Turning to `COc1cc2[nH]nc(-c3ccc(C4CCC(N(C)S(C)(=O)=O)C4)nc3)c2nc1-c1cccc2c1CCC2` (centres unmarked) [Example 154, N-(3-(5-(5-(2,3-Dihydro-1H-inden-4-yl)-6-methoxy-1H-pyrazolo[4,3-b]pyridin-3-yl)pyridin-2-yl)cyclopentyl)-N-methylmethanesulfonamide], the IC50 in test [1] (setting [5]) is 40 to 100 nM; in test [2], below 6 nM; in test [3], below 6 nM; in test [4] it was above 100 nM.
With `COc1cc2[nH]nc(-c3ccc(N4CCN(C(C)C)CC4)cc3)c2nc1-c1cccc2c1CCC2` [Example 62, 5-(2,3-Dihydro-1H-inden-4-yl)-3-(4-(4-isopropylpiperazin-1-yl)phenyl)-6-methoxy-1H-pyrazolo[4,3-b]pyridine], the IC50 in test [1] (setting [7]) was 6 to 40 nM; in test [2], below 6 nM; in test [3], below 6 nM; in test [4], above 100 nM.
As to `COCCOc1ccc(-c2n[nH]c3cc(OC)c(-c4cccc5c4CC(O)C5)nc23)cn1` (centres unmarked) [Example 95, 4-(6-Methoxy-3-(6-(2-methoxyethoxy)pyridin-3-yl)-1H-pyrazolo[4,3-b]pyridin-5-yl)-2,3-dihydro-1H-inden-2-ol], the IC50 in test [1] (setting [5]) was 40 to 100 nM; in test [2], below 6 nM; in test [3] (setting [6]) it was 6 to 40 nM; in test [4], above 100 nM.
Take `COc1cc2[nH]nc(-c3cnn(C4CN(C(=O)[C@H]5COCCN5C)C4)c3)c2nc1-c1cccc2c1CCC2` [Example 127, (R)-(3-(4-(5-(2,3-Dihydro-1H-inden-4-yl)-6-methoxy-1H-pyrazolo[4,3-b]pyridin-3-yl)-1H-pyrazol-1-yl)azetidin-1-yl)(4-methylmorpholin-3-yl)methanone]: the IC50 in test [1] (setting [7]) is 6 to 40 nM; in test [2], below 6 nM; in test [3], below 6 nM; in test [4], 40 to 100 nM.
For the compound `COc1cc2[nH]nc(-c3ccc(N4CCN(C)CC4)nc3)c2nc1-c1cccc2c1CCC2C#N` (centres unmarked) [Example 110, 4-(6-Methoxy-3-(6-(4-methylpiperazin-1-yl)pyridin-3-yl)-1H-pyrazolo[4,3-b]pyridin-5-yl)-2,3-dihydro-1H-indene-1-carbonitrile], the IC50 in test [1] (setting [7]) was 6 to 40 nM; in test [2] it was below 6 nM; in test [3] it was below 6 nM; in test [4] (setting [8]), 6 to 40 nM.
For the compound `COc1cc2[nH]nc(-c3ccc(N4CC(N(C)C(=O)CO)C4)nc3)c2nc1-c1cccc(C)c1C` [Example 98, N-(1-(5-(5-(2,3-Dimethylphenyl)-6-methoxy-1H-pyrazolo[4,3-b]pyridin-3-yl)pyridin-2-yl)azetidin-3-yl)-2-hydroxy-N-methylacetamide], the IC50 in test [1] (setting [5]) is 40 to 100 nM; in test [2] it was below 6 nM; in test [3] it was below 6 nM; in test [4], above 100 nM.
In the case of `COc1cc2[nH]nc(-c3ccc(C4CCN(C(=O)N5CCOCC5)CC4)nc3)c2nc1-c1cccc2c1CCC2C#N` (single isomer, unassigned) [Example 181, 4-(6-Methoxy-3-(6-(1-(morpholine-4-carbonyl)piperidin-4-yl)pyridin-3-yl)-1H-pyrazolo[4,3-b]pyridin-5-yl)-2,3-dihydro-1H-indene-1-carbonitrile], the IC50 in test [1] (setting [7]) is 6 to 40 nM; in test [2], below 6 nM; in test [3] it was below 6 nM; in test [4] (setting [8]), 6 to 40 nM.
